The values that follow come from patent publication US8394792B2, “Heterocyclic derivatives” (C&C Research Laboratories, priority 2008, dated 2013).

One assay has as its target CYP2C9 (Homo sapiens, UniProt P11712). Briefly: biochemical.
The next assay addresses T1, hURAT1 (Homo sapiens, UniProt Q96S37).
T1 construct: expressed in transfected cells; host or cells: HEK293 (human kidney cell line), transient transfection with Fugene6
T1 sequence (Q96S37 1-553): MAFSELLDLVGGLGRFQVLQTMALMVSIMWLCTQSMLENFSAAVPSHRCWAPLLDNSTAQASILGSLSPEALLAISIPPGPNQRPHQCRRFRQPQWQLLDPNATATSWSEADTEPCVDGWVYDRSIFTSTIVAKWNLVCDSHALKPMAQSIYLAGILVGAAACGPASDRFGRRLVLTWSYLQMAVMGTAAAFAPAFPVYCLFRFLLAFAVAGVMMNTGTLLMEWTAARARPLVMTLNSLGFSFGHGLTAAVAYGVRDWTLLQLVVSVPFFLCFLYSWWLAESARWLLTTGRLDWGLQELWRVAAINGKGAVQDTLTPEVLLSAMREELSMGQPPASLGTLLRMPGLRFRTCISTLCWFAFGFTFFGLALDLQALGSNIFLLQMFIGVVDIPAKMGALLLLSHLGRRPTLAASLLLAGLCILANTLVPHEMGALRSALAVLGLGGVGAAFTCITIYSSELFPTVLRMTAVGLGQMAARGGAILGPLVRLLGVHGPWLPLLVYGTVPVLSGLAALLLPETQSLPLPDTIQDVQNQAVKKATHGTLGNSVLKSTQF
Briefly: Test for inhibiting urate reuptake activity via hURAT1 (uric acid transport assay in hURAT1-overexpressed HEK293 cell line). It is filed as cell-based. The conditions noted are these: hURAT1-overexpressed HEK293 cells, [14C]-uric acid uptake, 100 μM uric acid; read-out: IC50 (μM) hURAT, level of uric acid reuptake inhibition. How it is done:
Test for Inhibiting Urate Reuptake Activity Via hURAT1
[hURAT1 Overexpression by Transient Transfection in Human Kidney Cell Line]
A human kidney cell line, HEK293 was incubated by using OptiMEM medium in 100 mm dish at (3*10^6 cells) for 24 hours. In order for the expression of hURAT1, a transfection mixture solution (Fugene6 18 μl:hURAT1 DNA 6 μg=3:1, in 600 μl OptiMEM medium/dish) was prepared and kept for 15 minutes at room temperature. To each dish, 600 μl of the mixture solution was injected and then incubated in 37[…] cell incubator for 24 hours. The hURAT1-overexpressed HEK293 cell line was trypsinized and cells were harvested. Cells were resuspended in medium and seeded at 6*10^5 cells/well and incubated for 24 hours in 24-well plate which was surface-coated with Poly-D-Lysine.
[Uric Acid Transport Assay in hURAT1-Overexpressed HEK293 Cell Line]
For each concentration, the stock sample solution was diluted in PBS (1 μl in 800 μl of PBS) as 1.25 fold concentrated working sample solution to obtain final concentrations of 0.01, 0.1, 1 and 10 μM. The hURAT1-overexpressed cell line was washed with 1 ml of PBS. After washing, PBS was discarded and the sample solution was diluted by 1.25 fold with PBS. Preincubation of cells with 200 μl/well of sample solution made above was conducted for 30 minutes in 37[…] cell incubator. After the incubation, each well was treated with 50 μl of PBS containing 500 μM [^14C]-uric acid (final 100 μM of uric acid/well). Cells were incubated for 2 minutes. The cells were washed twice with 1 ml of PBS.
To measure the uric acid uptake, each well was treated with 150 μl of M-per buffer (PIERCE) and kept in 37° C. cell incubator for 30 minutes to make cell lysates. 150 μl of cell lysates was transferred into test tube and 4 ml of scintillation cocktail was added. CPM value of [^14C]-uric acid absorbed into cells was detected using liquid scintillation counter. IC50 for the inhibition of uric acid uptake by each test sample was analyzed by computational numerical processing.

Where a name gives a salt, the structure may show the parent alone.

Sequence of CYP2C9 (P11712 whole entry): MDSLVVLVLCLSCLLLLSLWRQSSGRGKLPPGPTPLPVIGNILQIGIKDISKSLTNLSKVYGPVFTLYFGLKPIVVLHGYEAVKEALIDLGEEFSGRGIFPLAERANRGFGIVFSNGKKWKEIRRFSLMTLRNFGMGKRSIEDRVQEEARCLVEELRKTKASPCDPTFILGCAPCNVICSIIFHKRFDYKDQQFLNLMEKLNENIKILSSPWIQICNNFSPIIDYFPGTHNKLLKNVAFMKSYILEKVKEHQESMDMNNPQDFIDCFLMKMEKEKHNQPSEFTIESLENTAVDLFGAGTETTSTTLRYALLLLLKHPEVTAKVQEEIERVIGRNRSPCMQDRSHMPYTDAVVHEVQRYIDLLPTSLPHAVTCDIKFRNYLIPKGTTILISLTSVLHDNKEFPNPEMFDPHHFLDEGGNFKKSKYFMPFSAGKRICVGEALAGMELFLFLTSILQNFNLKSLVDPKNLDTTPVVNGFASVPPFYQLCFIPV

On to `O=C(c1cc(Br)c(O)c(Br)c1)N1CCOc2ncc(-c3cccc([N+](=O)[O-])c3)cc21` [Compound 50, (3,5-dibromo-4-hydroxy-phenyl)-[7-(3-nitro-phenyl)-2,3-dihydro-pyrido[2,3-b][1,4]oxazin-1-yl]-methanone], for which the IC50 at CYP2C9 was 1260 nM; on hURAT1 it was 0.0044 µM.
For `O=C(c1ccc(O)c(C(F)(F)F)c1)N1CCOc2cnccc21` [Compound 19, (2,3-dihydro-pyrido[3,4-b][1,4]oxazin-1-yl)-(4-hydroxy-3-trifluoromethyl-phenyl)-methanone] the same measures were 6800 nM and 0.269 µM.
`COc1c(Br)cc(C(=O)N2CCOc3ncc(-c4cccc([N+](=O)[O-])c4)cc32)cc1Br` [Compound 49, (3,5-dibromo-4-methoxy-phenyl)-[7-(3-nitro-phenyl)-2,3-dihydro-pyrido[2,3-b][1,4]oxazin-1-yl]-methanone]: the IC50 on CYP2C9 is above 20000 nM; on hURAT1, 0.311 µM.
On to `N#Cc1ccc(-c2cnc3c(c2)N(C(=O)c2cc(Br)c(O)c(Br)c2)CCO3)cc1` [Compound 65, 4-[1-(3,5-dibromo-4-hydroxy-benzoyl)-2,3-dihydro-1H-pyrido[2,3-b][1,4]oxazin-7-yl]-benzonitrile], for which the values for the IC50 against CYP2C9 and on hURAT1 were 12400 nM and 0.003 µM, respectively.
As to `COc1c(Br)cc(C(=O)N2CCOc3nc(C)ccc32)cc1Br` [Compound 58, (3,5-dibromo-4-methoxy-phenyl)-(6-methyl-2,3-dihydro-pyrido[2,3-b][1,4]oxazin-1-yl)-methanone], the IC50 against CYP2C9 was above 20000 nM; at hURAT1, 0.742 µM.
As for `O=C(c1ccc(O)c(Br)c1)N1CCOc2ccncc21` [Compound 38, (3-bromo-4-hydroxy-phenyl)-(2,3-dihydro-pyrido[4,3-b][1,4]oxazin-4-yl)-methanone], the half-maximal inhibitory concentration (IC50) at CYP2C9 is above 20000 nM; at hURAT1 it was 0.0964 µM.
For `O=C(c1cc(Br)c(O)c(Br)c1)N1CCOc2ncc(C3CC3)cc21` [Compound 9, (3,5-dibromo-4-hydroxy-phenyl)-(7-cyclopropyl-2,3-dihydro-pyrido[2,3-b][1,4]oxazin-1-yl)-methanone] the same measures were above 20000 nM and 0.02 µM.
Take `COc1cncc(-c2cnc3c(c2)N(C(=O)c2cc(Br)c(O)c(Br)c2)CCO3)c1` [Compound 68, (3,5-dibromo-4-hydroxy-phenyl)-[7-(5-methoxy-pyridin-3-yl)-2,3-dihydro-pyrido[2,3-b][1,4]oxazin-1-yl]-methanone]: the figures for the IC50 on CYP2C9 and at hURAT1 were 1390 nM and 0.0232 µM, respectively.
On to `COc1c(Br)cc(C(=O)N2CCOc3ncc(C)cc32)cc1Br` [Compound 27-1, (3,5-dibromo-4-methoxy-phenyl)-(7-methyl-2,3-dihydro-pyrido[2,3-b][1,4]oxazin-1-yl)-methanone], for which the 50% inhibitory concentration (IC50) at CYP2C9 was above 20000 nM; at hURAT1, 0.036 µM.
For `O=C(c1cc(Br)c(O)c(Br)c1)N1CCOc2ncc(-c3ccc(OC(F)(F)F)cc3)cc21` [Compound 66, (3,5-dibromo-4-hydroxy-phenyl)-[7-(4-trifluoromethoxy-phenyl)-2,3-dihydro-pyrido[2,3-b][1,4]oxazin-1-yl]-methanone] the same measures were 1340 nM and 0.0358 µM.
For `COc1c(Br)cc(C(=O)N2CCOc3ccncc32)cc1Br` [Compound 2, (3,5-dibromo-4-methoxy-phenyl)-(2,3-dihydro-pyrido[4,3-b][1,4]oxazin-4-yl)-methanone], the IC50 is above 12000 nM against CYP2C9 and 0.136 µM on hURAT1.
For `Oc1c(Br)cc(C(=S)N2CCOc3ccncc32)cc1Br` [Compound 74, (3,5-dibromo-4-hydroxy-phenyl)-(2,3-dihydro-pyrido[4,3-b][1,4]oxazin-4-yl)-methanethione trifluoroacetic acid salt], the IC50 at CYP2C9 worked out at 16700 nM; on hURAT1 it was 0.006 µM.
For `O=C(c1cc(Br)c(O)c(Br)c1)N1CCOc2ncc(-c3ccccc3)cc21` [Compound 20, (3,5-dibromo-4-hydroxy-phenyl)-(7-phenyl-2,3-dihydro-pyrido[2,3-b][1,4]oxazin-1-yl)-methanone] the same measures were 5200 nM and 0.034 µM.
Consider `O=C(c1cc(Br)c(O)c(Br)c1)N1CCOc2ncc(-c3ccc(C(F)(F)F)cc3)cc21` [Compound 45, (3,5-dibromo-4-hydroxy-phenyl)-[7-(4-trifluoromethyl-phenyl)-2,3-dihydro-pyrido[2,3-b][1,4]oxazin-1-yl]-methanone], for which the values for the concentration for half-maximal inhibition (IC50) at CYP2C9 and on hURAT1 were 1180 nM and 0.0197 µM, respectively.
Consider `O=C(c1ccc(O)c(Cl)c1)N1CCOc2ccncc21` [Compound 10, (3-chloro-4-hydroxy-phenyl)-(2,3-dihydro-pyrido[4,3-b][1,4]oxazin-4-yl)-methanone bromic acid salt], for which the IC50 at CYP2C9 was above 60000 nM; on hURAT1, 0.334 µM.
`O=C(c1ccc(O)c(Br)c1)N1CCOc2cnccc21` [Compound 16, (3-bromo-4-hydroxy-phenyl)-(2,3-dihydro-pyrido[3,4-b][1,4]oxazin-1-yl)-methanone bromic acid salt]: the IC50 at CYP2C9 was found to be 3500 nM; on hURAT1 it was 0.93 µM.
As for `O=C(c1cc(Br)c(O)c(Br)c1)N1CCOc2ncc(-c3cccc(C(F)(F)F)c3)cc21` [Compound 63, (3,5-dibromo-4-hydroxy-phenyl)-[7-(3-trifluoromethyl-phenyl)-2,3-dihydro-pyrido[2,3-b][1,4]oxazin-1-yl]-methanone], the IC50 at CYP2C9 turned out to be 1110 nM; at hURAT1, 0.0123 µM.
For `Cc1cnc2c(c1)N(C(=O)c1ccc(O)c(C(F)(F)F)c1)CCO2` [Compound 69, (4-hydroxy-3-trifluoromethyl-phenyl)-(7-methyl-2,3-dihydro-pyrido[2,3-b][1,4]oxazin-1-yl)-methanone] the same measures were above 20000 nM and 0.0331 µM.
Consider `Oc1c(Br)cc(C(=S)N2CCOc3ccncc32)cc1Br` [Compound 51, (3,5-dibromo-4-hydroxy-phenyl)-(2,3-dihydro-pyrido[4,3-b][1,4]oxazin-4-yl)-methanethione], for which the IC50 on CYP2C9 amounted to 8800 nM; on hURAT1 it was 0.0115 µM.
On to `O=C(c1cc(Br)c(O)c(Br)c1)N1CCOc2c1cnc1ccccc21` [Compound 55, (3,5-dibromo-4-hydroxy-phenyl)-(2,3-dihydro-4-oxa-1,9-diaza-phenanthren-1-yl)-methanone], for which the IC50 against CYP2C9 turned out to be 8870 nM; on hURAT1, 0.0488 µM.
Turning to `COc1c(Br)cc(C(=O)N2CCOc3ncc(C(F)(F)F)cc32)cc1Br` [Compound 22-1, (3,5-dibromo-4-methoxy-phenyl)-(7-trifluoromethyl-2,3-dihydro-pyrido[2,3-b][1,4]oxazin-1-yl)-methanone], the IC50 came out at 13400 nM at CYP2C9 and 0.0888 µM on hURAT1.
On to `O=S(=O)(c1cc(Cl)c(O)c(Cl)c1)N1CCOc2ccncc21` [Compound 21, 2,6-dichloro-4-(2,3-dihydro-pyrido[4,3-b][1,4]oxazin-4-sulfonyl)-phenol], for which the half-inhibitory concentration (IC50) against CYP2C9 was 1110 nM; at hURAT1, 0.954 µM.
Consider `O=C(c1cc(Br)c(O)c(Br)c1)N1CCOc2ncc(Br)cc21` [Compound 25, (7-bromo-2,3-dihydro-pyrido[2,3-b][1,4]oxazin-1-yl)-(3,5-dibromo-4-hydroxy-phenyl)-methanone], for which the values for the IC50 against CYP2C9 and at hURAT1 were above 20000 nM and 0.0073 µM, respectively.

For orientation: IC50 means the concentration needed to halve the response being measured.
